From the supplement of paper PMC5908809

How the values were obtained:
Assay in all cases: relative IC50 (inflection point of fitted viability curve, relative to fitted max inhibition); higher = less sensitive
Settings in all cases: 72 h
[1] = tested on: normal primary NK cells, pool 1 (3 donors), resting (IL-2 0 ng/mL)
Procedure: (§1)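 Drug sensitivity and resistance testing: 5 concentrations over a 10,000-fold range, 72 h at 37 °C, viability by CellTiter-Glo normalised to DMSO and benzethonium chloride controls. IC50 is the inflection point of a logistic fit (min fixed at 0, max fitted), so it is relative to the fitted maximal inhibition. Kept only where fitted max inhibition is at least 50%.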

[2] = tested on: IMC-1 (IL-2 20 ng/mL)
Procedure: as §1

[3] = tested on: NKL (IL-2 2.5 ng/mL)
Procedure: as §1

[4] = tested on: NK-YS (IL-2 2.5 ng/mL)
Procedure: as §1

[5] = tested on: normal primary NK cells, pool 1 (3 donors) (IL-2 2.5 ng/mL)
Procedure: as §1

[6] = tested on: normal primary NK cells, pool 2 (3 donors) (IL-2 2.5 ng/mL)
Procedure: as §1

[7] = tested on: normal primary NK cells, pool 3 (3 donors) (IL-2 2.5 ng/mL)
Procedure: as §1

[8] = tested on: DERL-7 (IL-2 2.5 ng/mL)
Procedure: as §1

[9] = tested on: YT (IL-2 2.5 ng/mL)
Procedure: as §1

[10] = tested on: NK-92 (IL-2 2.5 ng/mL)
Procedure: as §1

[11] = tested on: KHYG-1 (IL-2 2.5 ng/mL)
Procedure: as §1

[12] = tested on: SNK-6 (IL-2 2.5 ng/mL)
Procedure: as §1

[13] = tested on: KAI3 (IL-2 2.5 ng/mL)
Procedure: as §1

| Compound | relative IC50 [1] | relative IC50 [2] | relative IC50 [3] | relative IC50 [4] | relative IC50 [5] | relative IC50 [6] | relative IC50 [7] | relative IC50 [8] | relative IC50 [9] | relative IC50 [10] | relative IC50 [11] | relative IC50 [12] | relative IC50 [13] |
| --- | --- | --- | --- | --- | --- | --- | --- | --- | --- | --- | --- | --- | --- |
| Cc1cc(Nc2ncc(Cl)c(Nc3ccccc3S(=O)(=O)C(C)C)n2)c(OC(C)C)cc1C1CCNCC1 [Ceritinib] | 464 nM | > 2500 nM | > 2500 nM | > 2500 nM | 616 nM | – | – | – | – | – | – | – | – |
| CCN(CC)CCCC(C)Nc1ccnc2cc(Cl)ccc12 (stereo not drawn) [Chloroquine] | – | 33400 nM | – | – | – | 14300 nM | 9060 nM | – | – | – | – | – | – |
| N.N.[Cl][Pt][Cl] [Cisplatin] | – | 515 nM | – | – | – | 14800 nM | 15600 nM | – | – | – | – | – | – |
| CN(C)/N=N/c1[nH]cnc1C(N)=O [Dacarbazine] | > 10000 nM | – | – | – | – | > 10000 nM | – | > 10000 nM | 2970 nM | > 10000 nM | – | – | – |
| Cc1cc(Nc2cc(N3CCN(C)CC3)nc(/C=C/c3ccccc3)n2)n[nH]1 [ENMD-2076] | 1710 nM | 573 nM | 503 nM | 293 nM | 1500 nM | 1290 nM | 1970 nM | 497 nM | 1360 nM | 901 nM | 482 nM | 541 nM | 256 nM |
| CC(C)C(=O)Nc1ccc([N+](=O)[O-])c(C(F)(F)F)c1 [Flutamide] | – | – | – | – | > 10000 nM | – | – | – | – | – | > 10000 nM | – | > 10000 nM |
| COc1cc2c(cc1-c1c(C)noc1C)ncc1[nH]c(=O)n([C@H](C)c3ccccn3)c12 [I-BET151] | 1010 nM | 2040 nM | 375 nM | 707 nM | 1040 nM | 1240 nM | 1850 nM | 306 nM | 966 nM | – | 606 nM | 149 nM | 848 nM |
| Cc1ccc(NC(=O)c2ccc(CN3CCN(C)CC3)cc2)cc1Nc1nccc(-c2cccnc2)n1 [Imatinib] | 1980 nM | 3400 nM | 3600 nM | 2920 nM | 1650 nM | – | – | 2190 nM | 2740 nM | 2230 nM | 3080 nM | 4290 nM | 3230 nM |
| C/C(=C\c1csc(C)n1)[C@@H]1C[C@@H]2O[C@]2(C)CCC[C@H](C)[C@H](O)[C@@H](C)C(=O)C(C)(C)[C@@H](O)CC(=O)N1 [Ixabepilone] | > 1000 nM | 360 nM | 357 nM | 348 nM | > 1000 nM | – | – | 335 nM | 308 nM | 398 nM | 301 nM | 348 nM | 383 nM |
| COc1cc2nccc(Oc3ccc(NC(=O)NC4CC4)c(Cl)c3)c2cc1C(N)=O [Lenvatinib] | – | – | – | – | – | > 2500 nM | – | – | – | – | – | > 2500 nM | – |
| c1ccc([C@H]2CN3CCSC3=N2)cc1 [Levamisole] | – | – | – | > 10000 nM | – | > 10000 nM | > 10000 nM | – | > 10000 nM | > 10000 nM | > 10000 nM | – | > 10000 nM |
| O=NN(CCCl)C(=O)NC1CCCCC1 [Lomustine] | – | > 10000 nM | > 10000 nM | – | > 10000 nM | > 10000 nM | > 10000 nM | > 10000 nM | – | > 10000 nM | – | – | – |
| CCNC(=O)c1noc(-c2cc(C(C)C)c(O)cc2O)c1-c1ccc(CN2CCOCC2)cc1 [Luminespib] | – | 9.73 nM | 3.28 nM | 3.79 nM | 3.66 nM | 3.27 nM | 4.81 nM | 3.05 nM | 26.2 nM | 7.37 nM | 10.4 nM | 12.4 nM | 3.47 nM |
| CN(C[C@@H]1COCCO1)S(=O)(=O)Nc1ccc2ccc3ncc(-c4cnn(C)c4)cc3c(=O)c2c1 [MK-2461] | – | – | – | – | – | – | > 10000 nM | 1770 nM | – | – | – | – | – |
| O=C(c1cccc(Cl)c1F)N1CCN(Cc2cccc(Nc3nccs3)n2)CC1 [MK-8745] | – | 709 nM | – | 203 nM | – | > 2500 nM | > 2500 nM | 376 nM | – | – | – | 204 nM | – |
| CO[C@@]12[C@H](COC(N)=O)C3=C(C(=O)C(C)=C(N)C3=O)N1C[C@@H]1N[C@@H]12 [Mitomycin C] | 1630 nM | 2710 nM | 152 nM | 350 nM | – | 1010 nM | 1410 nM | – | 3200 nM | 1510 nM | 432 nM | 423 nM | 1060 nM |

| Compound | relative IC50 [1] | relative IC50 [2] | relative IC50 [3] | relative IC50 [4] | relative IC50 [5] | relative IC50 [6] | relative IC50 [7] | relative IC50 [8] | relative IC50 [9] | relative IC50 [10] | relative IC50 [11] | relative IC50 [12] | relative IC50 [13] |
| --- | --- | --- | --- | --- | --- | --- | --- | --- | --- | --- | --- | --- | --- |
| O=C1c2c(O)ccc(O)c2C(=O)c2c(NCCNCCO)ccc(NCCNCCO)c21 [Mitoxantrone] | 151 nM | 170 nM | 32.2 nM | 114 nM | 322 nM | 185 nM | – | 80.5 nM | – | – | 158 nM | 34.8 nM | 91 nM |
| Cc1cn(-c2cc(NC(=O)c3ccc(C)c(Nc4nccc(-c5cccnc5)n4)c3)cc(C(F)(F)F)c2)cn1 [Nilotinib] | – | – | 869 nM | – | – | – | > 10000 nM | – | – | – | – | – | – |
| COc1ccccc1S(=O)(=O)Nc1ccc2c(c1)CN(C)C(=O)N2 [PFI-1] | – | 2970 nM | 1080 nM | 1310 nM | – | 1780 nM | – | 1080 nM | 2310 nM | – | 1640 nM | – | – |
| c1cc(CN2CCCNCCNCCCNCC2)ccc1CN1CCCNCCNCCCNCC1 [Plerixafor] | – | – | – | – | – | > 10000 nM | > 10000 nM | – | – | – | – | – | – |
| Nc1cccc2c1C(=O)N(C1CCC(=O)NC1=O)C2=O (stereo not drawn) [Pomalidomide] | > 10000 nM | > 10000 nM | – | > 10000 nM | – | – | – | – | > 10000 nM | > 10000 nM | > 10000 nM | – | > 10000 nM |
| C[C@]12C=CC(=O)C=C1CC[C@@H]1[C@@H]2C(=O)C[C@@]2(C)[C@H]1CC[C@]2(O)C(=O)CO [Prednisone] | – | – | – | – | – | > 10000 nM | – | – | – | – | – | – | – |
| CNNCc1ccc(C(=O)NC(C)C)cc1 [Procarbazine] | – | > 10000 nM | > 10000 nM | > 10000 nM | > 10000 nM | > 10000 nM | > 10000 nM | > 10000 nM | > 10000 nM | > 10000 nM | > 10000 nM | – | > 10000 nM |
| CC(C)(C)Cn1c(N)nc2ccc(-c3[nH]c(C(C)(C)C)nc3-c3ccc(F)cc3)nc21 [Ralimetinib] | 4000 nM | > 10000 nM | 1600 nM | – | 3570 nM | – | – | – | 2220 nM | 1960 nM | – | – | – |
| CS(=O)(=O)c1ccc(C2=C(c3ccccc3)C(=O)OC2)cc1 [Rofecoxib] | > 10000 nM | – | – | – | – | – | > 10000 nM | – | – | – | – | – | – |
| CN1CCN(CCOc2cc(OC3CCOCC3)c3c(Nc4c(Cl)ccc5c4OCO5)ncnc3c2)CC1 [Saracatinib] | 1620 nM | 3200 nM | – | 2260 nM | – | – | – | 1590 nM | 1200 nM | 1590 nM | 3140 nM | – | 2110 nM |
| O=C(O)c1ccc2c(c1)nc(Nc1cccc(Cl)c1)c1ccncc12 [Silmitasertib] | 3780 nM | – | 1850 nM | 2170 nM | 1690 nM | 2230 nM | 2040 nM | 2270 nM | 1650 nM | 3900 nM | 2010 nM | 3730 nM | 1780 nM |
| CNC(=O)c1cc(Oc2ccc(NC(=O)Nc3ccc(Cl)c(C(F)(F)F)c3)cc2)ccn1 [Sorafenib] | – | > 1000 nM | > 1000 nM | – | > 1000 nM | > 1000 nM | > 1000 nM | – | – | – | – | – | – |
| COc1cc2c(N3CCN(C(=O)Nc4ccc(OC(C)C)cc4)CC3)ncnc2cc1OCCCN1CCCCC1 [Tandutinib] | – | – | – | – | – | – | > 1000 nM | – | – | – | – | – | – |
| CN1CCc2c(c3ccccc3n2Cc2ccc(C(=O)NO)cc2)C1 [Tubastatin A] | 1510 nM | 3270 nM | 1030 nM | 1810 nM | 1790 nM | – | – | 3400 nM | 2420 nM | 1580 nM | 2550 nM | 1430 nM | 1170 nM |
| CCC1=C[C@@H]2CN(C1)Cc1c([nH]c3ccccc13)[C@@](C(=O)OC)(c1cc3c(cc1OC)N(C)[C@H]1[C@@](O)(C(=O)OC)[C@H](OC(C)=O)[C@]4(CC)C=CCN5CC[C@]31[C@@H]54)C2 [Vinorelbine] | 1460 nM | 3.26 nM | 3.89 nM | 5.98 nM | – | – | – | 5.07 nM | 7.29 nM | 23.2 nM | 8.26 nM | 2.95 nM | 7.28 nM |
